Legend:
[1] = tested on: antibodies in sera from SARS patients (sera 1a, 1b, 2, 6, 37, 62, London, SARS-yellow, SARS-green); type: binding, human; parameters: Binding of serum 6 to linear peptides of protein X1 of SARS-CoV Urbani / Binding of serum 37 to linear peptides of protein X1 of SARS-CoV Urbani / Binding of serum 6 to looped/cyclic peptide (PEPSCAN-ELISA) / Binding of serum 37 to looped/cyclic peptide (PEPSCAN-ELISA) / Binding of serum 37 to looped/cyclic peptides of protein X1 of SARS-CoV Urbani / Binding of serum 6 to linear peptides of protein X2 / Binding of serum 37 to linear peptides of protein X2 / Binding of serum 37 to looped/cyclic peptides of protein X2 of SARS-CoV Urbani / Binding of serum 6 to linear peptides of protein M of SARS-CoV Urbani / Binding of serum 37 to linear peptides of protein M of SARS-CoV Urbani / Binding of serum 6 to looped/cyclic peptides of protein M of SARS-CoV Urbani / Binding of serum 37 to looped/cyclic peptides of protein M of SARS-CoV Urbani / Binding of serum 6 to linear peptides of protein X3 of SARS-CoV Urbani / Binding of serum 37 to linear peptides of protein X3 of SARS-CoV Urbani / Binding of serum 37 to looped/cyclic peptides of protein X3 of SARS-CoV Urbani / Binding of serum 6 to linear peptides of protein X4 of SARS-CoV Urbani / Binding of serum 37 to linear peptides of protein X4 of SARS-CoV Urbani / Binding of serum 37 to looped/cyclic peptides of protein X4 of SARS-CoV Urbani / Binding of serum 6 to linear peptides of protein X5 of SARS-CoV Urbani / Binding of serum 37 to linear peptides of protein X5 of SARS-CoV Urbani / Binding of serum 37 to looped/cyclic peptides of protein X5 of SARS-CoV Urbani / Binding of serum 6 to linear peptides of protein N of SARS-CoV Urbani / Binding of serum 37 to linear peptides of protein N of SARS-CoV Urbani / Binding of serum 6 to linear peptide (PEPSCAN-ELISA) / Binding of serum 1a to looped/cyclic peptides of protein N of SARS-CoV Urbani / Binding of serum 1b to looped/cyclic peptides of protein N of SARS-CoV Urbani / Binding of serum 2 to looped/cyclic peptides of protein N of SARS-CoV Urbani / Binding of serum 6 to looped/cyclic peptides of protein N of SARS-CoV Urbani / Binding of serum 37 to looped/cyclic peptides of protein N of SARS-CoV Urbani / Binding of serum 62 to looped/cyclic peptides of protein N of SARS-CoV Urbani / Binding of serum London to looped/cyclic peptides of protein N of SARS-CoV Urbani / Binding of serum SARS-green to looped/cyclic peptides of protein N of SARS-CoV Urbani: unit not given here
[2] = tested on: control sera (pooled serum of ten healthy LUMC hospital workers; commercial negative donor pooled serum from the Dutch bloodbank); type: binding, human; parameters: Binding of Control serum LUMC to linear peptides / Binding of Control serum Blood-bank to linear peptides / Binding of Control serum LUMC to looped peptides / Binding of Control Serum Blood-Bank to Looped peptides / Binding of Control serum LUMC to linear peptides of the protein M of SARS-CoV Urbani / Binding of Control serum Blood-bank to linear peptides of the protein M of SARS-CoV Urbani / Binding of Control serum LUMC to looped peptides of the protein M of SARS-CoV Urbani / Binding of Control Serum Blood-Bank to Looped peptides of the protein M of SARS-CoV Urbani: unit not given here
[3] = tested on: rabbit serum obtained by immunizing a rabbit with the SARS-CoV strain Frankfurt 1; type: binding; parameters: Binding of a rabbit serum to linear peptides / Binding of a rabbit serum to looped peptides / Rabbit serum linear peptides / Rabbit serum looped peptides / Binding of a rabbit serum to linear peptides of protein N of SARS-CoV Urbani (Rabbit serum linear peptides) / Binding of a rabbit serum to looped/cyclic peptides of protein N of SARS-CoV Urbani (Rabbit serum looped peptides): unit not given here
[4] = tested on: recombinant human anti-SARS-CoV antibody 03-018; type: binding; parameters: Binding of antibody 03-018 to linear peptides of the N protein of SARS-CoV Urbani / Binding of antibody 03-018 to looped/cyclic peptides of the N protein of SARS-CoV Urbani: unit not given here

| Sequence | Binding of serum 1a to linear peptides of protein N of SARS-CoV Urbani [1] | Binding of serum 1a to looped/cyclic peptides of protein N of SARS-CoV Urbani [1] | Binding of serum 1b to linear peptides of protein N of SARS-CoV Urbani [1] | Binding of serum 1b to looped/cyclic peptides of protein N of SARS-CoV Urbani [1] | Binding of serum 2 to linear peptides of protein N of SARS-CoV Urbani [1] | Binding of serum 2 to looped/cyclic peptides of protein N of SARS-CoV Urbani [1] | Binding of serum 6 to looped/cyclic peptides of protein N of SARS-CoV Urbani [1] | Binding of serum 37 to looped/cyclic peptides of protein N of SARS-CoV Urbani [1] | Binding of serum 62 to looped/cyclic peptides of protein N of SARS-CoV Urbani [1] | Binding of serum London to looped/cyclic peptides of protein N of SARS-CoV Urbani [1] | Binding of serum SARS-green to looped/cyclic peptides of protein N of SARS-CoV Urbani [1] | Binding of serum SARS-yellow to looped/cyclic peptides of protein N of SARS-CoV Urbani [1] | Binding of Control Serum Blood-Bank to Looped peptides [2] | Binding of Control serum Blood-bank to linear peptides [2] | Binding of Control serum LUMC to linear peptides [2] | Binding of Control serum LUMC to looped peptides [2] | Binding of antibody 03-018 to linear peptides of the N protein of SARS-CoV Urbani [4] | Binding of antibody 03-018 to looped/cyclic peptides of the N protein of SARS-CoV Urbani [4] | Binding of a rabbit serum to linear peptides of protein N of SARS-CoV Urbani (Rabbit serum linear peptides) [3] | Binding of a rabbit serum to looped/cyclic peptides of protein N of SARS-CoV Urbani (Rabbit serum looped peptides) [3] | also measured |
| --- | --- | --- | --- | --- | --- | --- | --- | --- | --- | --- | --- | --- | --- | --- | --- | --- | --- | --- | --- | --- | --- |
| PDDQIGYYRRATRRV | 0.2 | 0.4 | 0.1 | 0.3 | 0.2 | 0.6 | 0.5 | 0.9 | 0.8 | 0.5 | 0.8 | 0.7 | 0.8 | 0.6 | 0.6 | 0.8 | 0.1 | 0.3 | – | – | Binding of serum 6 to linear peptides of protein N of SARS-CoV Urbani [1]: 0.2; Binding of serum 37 to linear peptides of protein N of SARS-CoV Urbani [1]: 0.6; Binding of serum 62 to linear peptides of protein N of SARS-CoV Urbani [1]: 0.5; Binding of serum London to linear peptides of protein N of SARS-CoV Urbani [1]: 0.4; Binding of serum SARS-green to linear peptides of protein N of SARS-CoV Urbani [1]: 0.3; Binding of serum SARS-yellow to linear peptides of protein N of SARS-CoV Urbani [1]: 0.6; Recognition of the peptide by the rabbit serum [3]: recognized |
| SRIGMEVTPSGTWLT | 0.2 | 0.3 | 0.1 | 0.2 | 0.2 | 0.4 | 0.2 | 0.5 | 0.5 | 0.4 | 0.5 | 0.4 | – | – | – | – | 0.1 | 0.2 | 0.1 | 0.4 | Binding of serum 6 to linear peptides of protein N of SARS-CoV Urbani [1]: 0.2; Binding of serum 37 to linear peptides of protein N of SARS-CoV Urbani [1]: 0.7; Binding of serum 62 to linear peptides of protein N of SARS-CoV Urbani [1]: 0.6; Binding of serum London to linear peptides of protein N of SARS-CoV Urbani [1]: 0.5; Binding of serum SARS-green to linear peptides of protein N of SARS-CoV Urbani [1]: 0.4; Binding of serum SARS-yellow to linear peptides of protein N of SARS-CoV Urbani [1]: 0.6; Control Serum Blood-Bank Looped peptides [2]: 0.6; Control serum Blood-bank linear peptides [2]: 0.8; Control serum LUMC linear peptides [2]: 0.6; Control serum LUMC looped peptides [2]: 0.6 |
| LESKVSGKGQQQQGQ | – | 0.4 | – | 0.3 | – | 0.7 | 0.5 | 0.7 | 0.6 | 1.8 | 0.4 | 0.7 | 0.8 | 0.8 | 0.7 | 0.7 | 0.1 | 0.3 | 0.1 | 0.6 | Binding of serum 1a to linear peptide (PEPSCAN-ELISA) [1]: 0.3; Binding of serum 1b to linear peptide (PEPSCAN-ELISA) [1]: 0.1; Binding of serum 2 to linear peptide (PEPSCAN-ELISA) [1]: 0.2; Binding of serum 6 to linear peptide (PEPSCAN-ELISA) [1]: 0.1; Binding of serum 37 to linear peptide (PEPSCAN-ELISA) [1]: 0.6; Binding of serum 62 to linear peptide (PEPSCAN-ELISA) [1]: 0.6; Binding of serum London to linear peptide (PEPSCAN-ELISA) [1]: 0.5; Binding of serum SARS-green to linear peptide (PEPSCAN-ELISA) [1]: 0.4; Binding of serum SARS-yellow to linear peptide (PEPSCAN-ELISA) [1]: 0.7 |
| TALALLLLDRLNQLE | – | 0.4 | – | 0.3 | – | 0.5 | 0.3 | 0.8 | 0.7 | 0.5 | 0.7 | 0.5 | 0.8 | 0.7 | 0.7 | 0.8 | 0.1 | 0.2 | 0.2 | 0.5 | Binding of serum 1a to linear peptide (PEPSCAN-ELISA) [1]: 0.3; Binding of serum 1b to linear peptide (PEPSCAN-ELISA) [1]: 0.2; Binding of serum 2 to linear peptide (PEPSCAN-ELISA) [1]: 0.2; Binding of serum 6 to linear peptide (PEPSCAN-ELISA) [1]: 0.2; Binding of serum 37 to linear peptide (PEPSCAN-ELISA) [1]: 0.7; Binding of serum 62 to linear peptide (PEPSCAN-ELISA) [1]: 0.7; Binding of serum London to linear peptide (PEPSCAN-ELISA) [1]: 0.5; Binding of serum SARS-green to linear peptide (PEPSCAN-ELISA) [1]: 0.8; Binding of serum SARS-yellow to linear peptide (PEPSCAN-ELISA) [1]: 0.6 |
